Data from patent US20250313535A1, “ALPHA 4 BETA 7 INTEGRIN MODULATORS AND USES THEREOF” (DICE MOLECULES SV, INC., priority 2022, published 2025).

Columns and labels:
α4β1 integrin = α4β1 integrin (Homo sapiens (Human), UniProt P05556+P13612); test: Integrin Adhesion Assay: Protocol 5 (VCAM-coated plate, RPMI-8866 cells with stable LOF mutation of the ITGB7 gene); format: cell-based; conditions: Protocol 5; RPMI-8866 cells with LOF mutation of ITGB7, VCAM; read-out: Mean IC50 α4β1 KO
Outline: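 RPMI-8866 B cells with CRISPR/Cas9 ITGB7 knockout (clonal, verified by flow cytometry) adhered to VCAM-coated wells for 1 h at 37° C in HEPES/NaCl buffer with 1 mM MnCl2, 0.1 mM CaCl2, 1% BSA, 1% DMSO. Bound cells quantified by CellTiter-Glo luminescence after washing; % inhibition versus DMSO and control, 4-parameter fit.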

α4β7 integrin = α4β7 integrin (Homo sapiens (Human), UniProt P13612+P26010); test: Integrin Adhesion Assay: Protocol 4 (MAdCAM-coated plate, RPMI-8866 cells with stable LOF mutation of the ITGB1 gene); format: cell-based; conditions: Protocol 4; RPMI-8866 cells with LOF mutation of ITGB1, MAdCAM; read-out: Mean IC50 α4β7 KO
Chain of α4β7 integrin (P13612 34-1032): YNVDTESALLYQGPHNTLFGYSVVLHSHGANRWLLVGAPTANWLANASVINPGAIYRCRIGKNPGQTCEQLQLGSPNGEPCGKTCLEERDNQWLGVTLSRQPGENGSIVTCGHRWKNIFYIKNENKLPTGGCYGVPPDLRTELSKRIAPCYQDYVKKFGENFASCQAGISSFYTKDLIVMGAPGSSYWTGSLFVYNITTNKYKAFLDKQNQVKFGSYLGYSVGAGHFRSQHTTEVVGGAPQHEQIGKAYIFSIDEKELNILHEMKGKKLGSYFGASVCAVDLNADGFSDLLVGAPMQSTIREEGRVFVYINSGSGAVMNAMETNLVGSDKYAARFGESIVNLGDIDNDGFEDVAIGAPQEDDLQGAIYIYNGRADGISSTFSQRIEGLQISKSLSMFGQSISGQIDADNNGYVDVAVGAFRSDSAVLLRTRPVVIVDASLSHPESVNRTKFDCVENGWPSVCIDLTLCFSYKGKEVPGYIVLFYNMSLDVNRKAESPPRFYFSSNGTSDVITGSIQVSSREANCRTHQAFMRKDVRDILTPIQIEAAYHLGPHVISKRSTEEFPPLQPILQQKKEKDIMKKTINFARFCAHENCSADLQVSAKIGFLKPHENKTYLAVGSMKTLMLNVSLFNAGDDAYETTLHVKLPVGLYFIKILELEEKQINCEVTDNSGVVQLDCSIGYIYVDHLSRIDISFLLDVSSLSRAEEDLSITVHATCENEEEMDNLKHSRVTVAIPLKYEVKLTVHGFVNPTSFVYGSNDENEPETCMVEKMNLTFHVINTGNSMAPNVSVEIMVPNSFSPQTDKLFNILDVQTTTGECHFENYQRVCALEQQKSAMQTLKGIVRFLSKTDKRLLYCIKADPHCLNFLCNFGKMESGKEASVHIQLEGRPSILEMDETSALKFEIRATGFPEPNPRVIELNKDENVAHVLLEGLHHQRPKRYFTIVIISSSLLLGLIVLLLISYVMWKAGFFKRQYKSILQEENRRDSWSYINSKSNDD
Chain of α4β7 integrin (P26010 20-798): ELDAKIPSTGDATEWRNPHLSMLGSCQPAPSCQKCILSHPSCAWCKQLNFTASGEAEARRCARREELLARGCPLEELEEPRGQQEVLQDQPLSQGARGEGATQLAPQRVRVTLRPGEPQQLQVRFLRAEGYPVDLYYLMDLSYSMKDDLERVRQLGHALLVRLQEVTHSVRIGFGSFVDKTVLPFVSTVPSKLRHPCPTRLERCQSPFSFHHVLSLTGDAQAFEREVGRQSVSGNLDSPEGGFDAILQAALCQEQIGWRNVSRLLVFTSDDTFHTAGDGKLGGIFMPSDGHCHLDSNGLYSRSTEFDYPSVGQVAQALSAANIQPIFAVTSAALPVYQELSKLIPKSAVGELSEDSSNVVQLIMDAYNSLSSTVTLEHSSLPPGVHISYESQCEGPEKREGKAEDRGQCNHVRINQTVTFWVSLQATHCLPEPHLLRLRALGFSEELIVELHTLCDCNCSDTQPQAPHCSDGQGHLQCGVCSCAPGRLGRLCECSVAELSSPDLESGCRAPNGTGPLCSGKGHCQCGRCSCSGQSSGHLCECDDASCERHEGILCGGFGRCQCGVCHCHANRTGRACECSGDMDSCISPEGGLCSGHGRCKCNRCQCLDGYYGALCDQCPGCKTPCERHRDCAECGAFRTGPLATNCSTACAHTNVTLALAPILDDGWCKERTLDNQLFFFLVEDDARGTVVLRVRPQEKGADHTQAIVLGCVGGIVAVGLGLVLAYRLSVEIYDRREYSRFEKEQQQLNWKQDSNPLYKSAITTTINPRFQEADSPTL
Outline: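 RPMI-8866 cells with CRISPR/Cas9 knockout of ITGB1 (2×10^6/mL) were added to MAdCAM-coated wells with compound (1% DMSO) in HEPES/NaCl buffer with 1 mM MnCl2, 0.1 mM CaCl2 and 1% BSA, then incubated 1 h at 37 °C. After four washes, adherent cells were quantified by CellTiter-Glo luminescence. Percent inhibition versus DMSO and control compound was fitted to 4-parameter curves.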

Chain of α4β1 integrin (P13612 34-1032): as the sequence (P13612 34-1032) above
Chain of α4β1 integrin (P05556 21-798): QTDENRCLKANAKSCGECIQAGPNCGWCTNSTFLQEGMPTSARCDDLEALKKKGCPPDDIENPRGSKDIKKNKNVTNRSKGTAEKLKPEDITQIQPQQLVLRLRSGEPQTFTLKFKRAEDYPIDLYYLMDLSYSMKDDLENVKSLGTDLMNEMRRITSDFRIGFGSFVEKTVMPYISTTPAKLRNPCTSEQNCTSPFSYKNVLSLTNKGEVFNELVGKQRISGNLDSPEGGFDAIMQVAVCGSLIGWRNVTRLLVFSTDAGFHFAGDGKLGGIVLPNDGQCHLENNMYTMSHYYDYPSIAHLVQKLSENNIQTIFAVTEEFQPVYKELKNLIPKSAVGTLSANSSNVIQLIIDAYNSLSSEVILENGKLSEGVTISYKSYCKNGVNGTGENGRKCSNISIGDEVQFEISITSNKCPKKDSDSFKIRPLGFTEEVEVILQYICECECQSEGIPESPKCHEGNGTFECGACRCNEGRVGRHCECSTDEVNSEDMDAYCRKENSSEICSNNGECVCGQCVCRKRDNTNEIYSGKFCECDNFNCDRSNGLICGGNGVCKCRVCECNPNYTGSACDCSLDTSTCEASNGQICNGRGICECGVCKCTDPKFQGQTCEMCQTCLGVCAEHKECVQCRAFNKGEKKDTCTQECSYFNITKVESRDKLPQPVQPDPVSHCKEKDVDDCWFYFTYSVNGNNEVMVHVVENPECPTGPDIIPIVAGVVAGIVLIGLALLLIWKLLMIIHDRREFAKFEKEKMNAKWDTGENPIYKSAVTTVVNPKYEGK

| SMILES | IC50 (α4β1 integrin) [nM] | IC50 (α4β7 integrin) [nM] |
| --- | --- | --- |
| Cc1cccc(F)c1C(=O)N[C@@H](Cc1cccc2c(-c3c(C(F)(F)F)c4cc(CCN5CCCC5)ccc4n(C)c3=O)cccc12)C(=O)O [Compound 713] | 100 to 1000 | < 10 |
| Cc1cccc(F)c1C(=O)N[C@@H](Cc1cccc2c(-c3c(C(F)(F)F)c4cc(CCN5CCC(F)(F)CC5)ccc4n(C)c3=O)cccc12)C(=O)O [Compound 714] | > 1000 | 10 to 100 |
| Cc1c(CCN2CCC(F)(F)CC2)ccnc1-c1cccc2c(C[C@H](NC(=O)C3(C(F)(F)F)CCN(CC(F)(F)F)CC3)C(=O)O)cccc12 [Compound 716] | > 1000 | < 10 |
| Cc1c(CCN2CCCCC2)ccnc1-c1cccc2c(C[C@H](NC(=O)C3(C(F)(F)F)CCN(CC(F)(F)F)CC3)C(=O)O)cccc12 [Compound 717] | 100 to 1000 | < 10 |
| O=C(O)[C@H](Cc1cccc2c(-c3nccc4ccc(CCN5CCCCC5)cc34)cccc12)NC(=O)C1(C(F)(F)F)CCN(CC(F)(F)F)CC1 [Compound 718] | > 1000 | < 10 |
| Cc1cc(CN2CCCCC2)cnc1-c1cccc2c(C[C@H](NC(=O)C3(C(F)(F)F)CCN(CC(F)F)CC3)C(=O)O)cccc12 [Compound 721] | > 1000 | 10 to 100 |
| COc1ccc2c(CN3CCCCC3)ccnc2c1-c1cccc2c(C[C@H](NC(=O)C3(C(F)(F)F)CCN(CC(F)(F)F)CC3)C(=O)O)cccc12 [Compound 722] | 10 to 100 | < 10 |
| O=C(O)[C@H](Cc1cccc2c(-c3nccc4ccccc34)cccc12)NC(=O)C1(C(F)(F)F)CCN(CC(F)(F)F)CC1 [Compound 723] | > 1000 | 10 to 100 |
| COc1cc2c(c(C)c1-c1cccc3c(C[C@H](NC(=O)C4(C(F)(F)F)CCN(CC(F)(F)F)CC4)C(=O)O)cccc13)CN(C)CC2 [Compound 724] | 10 to 100 | < 10 |
| O=C(O)[C@H](Cc1cccc2c(-c3nccc4ccc(CCCN5CCCCC5)cc34)cccc12)NC(=O)C1(C(F)(F)F)CCN(CC(F)(F)F)CC1 [Compound 725] | > 1000 | < 10 |
| COc1cc2c(c(C(F)(F)F)c1-c1cccc3c(C[C@H](NC(=O)C4(C(F)(F)F)CCN(CC(F)(F)F)CC4)C(=O)O)cccc13)CCN(C)C2 [Compound 726] | 10 to 100 | < 10 |
| COc1ccc(CCN2CCCCC2)c(C(F)(F)F)c1-c1cccc2c(C[C@H](NC(=O)C3(C(F)(F)F)CCN(CC(F)(F)F)CC3)C(=O)O)cccc12 [Compound 727] | 10 to 100 | < 10 |
| COc1cc(CN2CCCCC2)c2cccnc2c1-c1cccc2c(C[C@H](NC(=O)C3(C(F)(F)F)CCN(CC(F)(F)F)CC3)C(=O)O)cccc12 [Compound 728] | 100 to 1000 | < 10 |
| COc1cccc(OCCN2CCCCC2)c1-c1cccc2c(C[C@H](NC(=O)C3(C(F)(F)F)CCN(CC(F)(F)F)CC3)C(=O)O)cccc12 [Compound 729] | 100 to 1000 | < 10 |
| O=C(O)[C@H](Cc1cccc2c(-c3ncc(CCCN4CCCCC4)c4ccccc34)cccc12)NC(=O)C1(C(F)(F)F)CCN(CC(F)(F)F)CC1 [Compound 730] | > 1000 | < 10 |
| COc1ccc(CCN2CCCCC2)cc1-c1cccc2c(C[C@H](NC(=O)C3(C(F)(F)F)CCN(CC(F)(F)F)CC3)C(=O)O)cccc12 [Compound 731] | 100 to 1000 | < 10 |
| O=C(O)[C@H](Cc1cccc2c(-c3cc(CN4CCCCC4)cc4cccnc34)cccc12)NC(=O)C1(C(F)(F)F)CCN(CC(F)(F)F)CC1 [Compound 732] | > 1000 | 10 to 100 |
| COc1ccc2cc(CN3CCCCC3)cnc2c1-c1cccc2c(C[C@H](NC(=O)C3(C(F)(F)F)CCN(CC(F)(F)F)CC3)C(=O)O)cccc12 [Compound 733] | 100 to 1000 | 10 to 100 |

| SMILES | IC50 (α4β1 integrin) [nM] | IC50 (α4β7 integrin) [nM] |
| --- | --- | --- |
| COc1cncc(OC)c1-c1cccc2c(C[C@H](NC(=O)C3(C(F)(F)F)CCN(CC(F)(F)F)CC3)C(=O)O)cccc12 [Compound 734] | 100 to 1000 | < 10 |
| COc1c2c(cc(C)c1-c1cccc3c(C[C@H](NC(=O)C4(C(F)(F)F)CCN(CC(F)(F)F)CC4)C(=O)O)cccc13)CCN(C)C2 [Compound 735] | > 1000 | < 10 |
| COc1ccc2c(c1-c1cccc3c(C[C@H](NC(=O)C4(C(F)(F)F)CCN(CC(F)(F)F)CC4)C(=O)O)cccc13)CCN(C)C2 [Compound 737] | 100 to 1000 | < 10 |
| COc1cc2ncccc2c(C)c1-c1cccc2c(C[C@H](NC(=O)C3(C(F)(F)F)CCN(CC(F)(F)F)CC3)C(=O)O)cccc12 [Compound 738] | > 1000 | 10 to 100 |
| COc1c(-c2cccc3c(C[C@H](NC(=O)C4(C(F)(F)F)CCN(CC(F)(F)F)CC4)C(=O)O)cccc23)c(=O)n(C)c2ccccc12 [Compound 739] | > 1000 | 10 to 100 |
| COc1cc(CCN2CCCCC2)ccc1-c1cccc2c(C[C@H](NC(=O)c3c(C)cccc3F)C(=O)O)cccc12 [Compound 740] | > 1000 | < 10 |
| COc1cc(C(F)(F)F)cc(CCN2CCCCC2)c1-c1cccc2c(C[C@H](NC(=O)C3(C(F)(F)F)CCN(CC(F)(F)F)CC3)C(=O)O)cccc12 [Compound 741] | > 1000 | 10 to 100 |
| COc1cccc(CCCN2CCC(F)(F)CC2)c1-c1cccc2c(C[C@H](NC(=O)C3(C(F)(F)F)CCN(CC(F)(F)F)CC3)C(=O)O)cccc12 [Compound 742] | > 1000 | 10 to 100 |
| O=C(O)[C@H](Cc1cccc2c(-c3nccc4ccc(CCCN5C6CCCC5CC6)cc34)cccc12)NC(=O)C1(C(F)(F)F)CCN(CC(F)(F)F)CC1 [Compound 744] | > 1000 | < 10 |
| O=C(O)[C@H](Cc1cccc2c(-c3ncc(CN4CCCCC4)c4c3CCCC4)cccc12)NC(=O)C1(C(F)(F)F)CCN(CC(F)(F)F)CC1 [Compound 746] | > 1000 | < 10 |
| O=C(O)[C@H](Cc1cccc2c(-c3nccc4ccc(CCCN5CCCCC5)cc34)cccc12)NC(=O)C1(C(F)(F)F)CCN(CC(F)F)CC1 [Compound 748] | > 1000 | < 10 |
| O=C(O)[C@H](Cc1cccc2c(-c3ccccc3OCCN3CCCCC3)cccc12)NC(=O)C1(C(F)(F)F)CCN(CC(F)(F)F)CC1 [Compound 749] | > 1000 | 10 to 100 |
| COc1ccc2c(c1-c1cccc3c(C[C@H](NC(=O)C4(C(F)(F)F)CCN(CC(F)(F)F)CC4)C(=O)O)cccc13)CN(CC(F)(F)F)CC2 [Compound 750] | > 1000 | 10 to 100 |
| CCOCc1cc(CN2CCCCC2)c(-c2cccc3c(C[C@H](NC(=O)C4(C(F)(F)F)CCN(CC(F)(F)F)CC4)C(=O)O)cccc23)c(OC)c1 [Compound 751] | > 1000 | 10 to 100 |
| COc1ccc2c(c1-c1cccc3c(C[C@H](NC(=O)C4(C(F)(F)F)CCN(CC(F)(F)F)CC4)C(=O)O)cccc13)CCN(CC(F)F)C2 [Compound 752] | > 1000 | 10 to 100 |
| COc1ccc2c(c1-c1cccc3c(C[C@H](NC(=O)C4(C(F)(F)F)CCN(CC(F)(F)F)CC4)C(=O)O)cccc13)CN(CC(F)F)CC2 [Compound 753] | > 1000 | 10 to 100 |
| CN1CCc2cc(-c3cccc4c(C[C@H](NC(=O)C5(C(F)(F)F)CCN(CC(F)(F)F)CC5)C(=O)O)cccc34)ncc2C1 [Compound 754] | > 1000 | 10 to 100 |
